Publication PMC5620575 (Pharmaceutics, 2017)
Converted amounts (≈) assume the structure as drawn.

What was measured:
[1] = test system: Staphylococcus aureus and Enterococci spp; set-up: method as in PMID 12467705, PMID 15911326, PMID 17140706, PMID 19376613, PMID 23811087; details: clinical isolates; cited from earlier work
[2] = set-up: method as in ref 25 = [25]; 25. ZYVOXAM ® Product Monograph Pfizer Canada Inc. Kirkland, QC, Canada 2015; details: humans; cited from earlier work
Escherichia coli = test system: Escherichia coli; set-up: method as in PMID 12467705, PMID 15911326, PMID 17140706, PMID 19376613, PMID 23811087; details: cited from earlier work
[3] = humans; cited from earlier work
Streptococcus pneumoniae = test system: Streptococcus pneumoniae; set-up: method as in PMID 12467705, PMID 15911326, PMID 17140706, PMID 19376613, PMID 23811087; details: cited from earlier work
[4] = pharmacokinetics after single oral administration as microemulsion; format: in vivo; details: New Zealand White, plasma, rabbit, 20 mg/kg, n = 3
Procedure: Three groups of rabbits (n = 3, each) received 20 mg/kg oral dose of each compound in the form of microemulsion through a pediatric feeding tube. After administration, serial blood samples were obtained through the IV catheter, over a period of 10 h. Plasma was obtained from blood by centrifugation, and samples were kept at −80 °C until analysis.
(§1) The pharmacokinetic parameters for each of the three compounds including half-life (t1/2), volume of distribution (Vd), elimination rate constant (k), area under the plasma concentration-time curve (AUC), total body clearance (CLT), renal clearance (CLR), and oral bioavailability (F) were determined using the general pharmacokinetic parameter calculation procedures using PKPD tools for Microsoft Excel. The obtained pharmacokinetic parameters for each compound were compared using Statistical Package of Social Sciences (SPSS) to determine the difference in the pharmacokinetic behavior for the three compounds.

[5] = set-up: method as in unpublished data from our laboratory; details: rabbit urine after IV administration; ref unpublished data from our laboratory; cited from earlier work
[6] = tissue to plasma distribution; format: in vivo; details: New Zealand White, rabbit, in vivo, 2 x 10 mg/kg IV, 2 h after second dose, n = 3, read-out: Tissue to Plasma Concentration Ratio, Kidney
Procedure: Three groups of White New Zealand rabbits (n = 3, each) weighing 3.0–3.5 kg were used. Each group received 10 mg/kg of one compounds administered intravenously over a period of 3–5 min, followed one hour later by a second IV dose of 10 mg/kg. Two h later, the rabbits were euthanized with an IV dose of pentobarbital. Plasma and tissue samples, including kidney, liver, lungs, spleen, heart, muscles, and vetrus fluid were collected immediately, and stored at −80 °C until analysis.
Plasma ultra-filtrate samples were analyzed using the same procedures for the plasma. Tissue homogenates were prepared by adding 1 gm of the tissues samples to 4 g of phosphate buffer, pH 7.4 (1:4, w/w), then homogenization using Tissue-Tearor, Bio-Spec Products Inc. (Bartlesville, OK, USA). Aliquots of 200 μL of tissue homogenate samples were analyzed using the procedures for the plasma and the concentrations were determined using plasma calibrators as described and validated previously for Lzd and PH027 [18].
The tissue to plasma concentration ratios for the three compounds were calculated from the ratio of the tissue homogenate concentrations corrected for the dilution during the homoginization process and the plasma concentrations. Generally, the three compounds have very good distribution to all tissues. The tissue to plasma distribution ratios for the novel compounds were more than one in kidney, lung, liver, heart, muscles and spleen, and the ratios were more than those for Lzd in all investigated tissues. Table 3, summerizes the tissue to plasma distribution ratios for the three compounds in different tissues.

[7] = weak base; reported, no reference given; cited from earlier work
S. aureus Giorgio = test system: S. aureus Giorgio; set-up: method as in ref unpublished data from Jin-Hwan Kwak at Handong Global University; details: oral suspension 1 and 4 h after infection, survival recorded for 72 h; ref unpublished data from Jin-Hwan Kwak at Handong Global University; cited from earlier work
[8] = pharmacokinetics after single IV administration; format: in vivo; details: rabbit, 5 mg/kg
From the text: IV administration of the compounds under investigation, and collection of blood samples were through a catheter inserted in the marginal ear vein of the rabbit (I-Cath, CharterMed Inc., Winston-Salem, NC, USA). After IV drug administration, blood was withdrawn to fill the cannula and then reinjected three times before obtaining any blood samples to prevent contamination. Furthermore, the cannula was flushed with heparinized saline to prevent blockage of the cannula and prevent sample to sample contamination.
Urine samples were collected utilizing Foly Catheter (size French 8). The catheter was inserted into the rabbit bladder using a lubricant. When urine is collected over a specific time interval, the bladder was irrigated with 3 × 15 mL normal saline at 3 min, 6 min, and 10 min before the end of the urine collection interval [15, 16]. Irrigation of the bladder is necessary to obtain the majority of the drug eliminated in urine during the collection interval.
Three groups of rabbits (n = 4, each) received 5 mg/kg dose of each compound via the IV catheter. This dose was selected based on the results of a preliminary experiment to achieve measurable plasma concentrations for 8 h using our analytical methods, to ensure good characterization of the plasma concentration-time profile. Accurately weighed Lzd and PH027 powder were dissolved first in 600 μL of ethanol using an ultrasound water bath. The resulting solution was then diluted with normal saline to produce the solutions used for IV administration, which consist of the dose of the compound dissolved in 3 mL of 20% ethanol in normal saline. PH051 required the use of slightly larger volume of ethanol to achieve complete dissolution. So, 900 μL of ethanol were used, and the resulting solution used for IV administration consisted of PH051 dose dissolved in 3 mL of 30% ethanol in normal saline. The difference in the volume of ethanol administered, 300 μL, which was necessary to ensure complete dissolution of PH051, should not have a significant effect on the pharmacokinetic behavior of PH051. The solutions were administered slowly over a period of […] administration, serial blood and urine samples were obtained over a period of 8 h. Plasma was obtained from blood by centrifugation, and samples were kept at −80 °C until analysis. The volumes of urine samples were determined and recorded, and aliquots were kept at −80 °C until analysis.
as §1

[9] = pharmacokinetics after single oral administration as suspension; format: in vivo; details: New Zealand White, plasma, rabbit, 20 mg/kg, n = 4
Procedure: The pediatric feeding tube was pushed until it reached the stomach.
Three groups of rabbits (n = 4, each) received 20 mg/kg oral dose of each compound. […] Accurately weighted amounts of each compound were dissolved/suspended in 20 mL of warm normal saline using an ultrasound water bath. […] The solutions/suspensions of the three compounds were administered orally to the rabbits using a pediatric feeding tubes. After oral administration of each compound, serial blood samples were obtained through the IV catheter, over a period of 10 h after administration. Plasma was obtained from blood by centrifugation, and samples were kept at −80 °C until analysis.
as §1

Heamophilus influenzae = test system: Heamophilus influenzae; set-up: method as in PMID 12467705, PMID 15911326, PMID 17140706, PMID 19376613, PMID 23811087; details: unit printed only for the neighbouring MICs of the sentence; cited from earlier work
Moraxella catarrhalis = test system: Moraxella catarrhalis; set-up: method as in PMID 12467705, PMID 15911326, PMID 17140706, PMID 19376613, PMID 23811087; details: cited from earlier work
[10] = White New Zealand, plasma, n = 4

Q: With `CC(=O)NC[C@H]1CN(c2ccc(N3CCOCC3)c(F)c2)C(=O)O1` [Linezolid, reference compound] as the molecule, how does the MIC [1] read?
A: The MIC was 0.5 to 1.0 µg/mL.

Q: And the “dose excretion in urine” value [2]?
A: Its value is 30%.

Q: And the MIC (Escherichia coli)?
A: Its MIC is greater than 64 µg/mL.

Q: What about the plasma protein binding [3] of the same molecule?
A: Its plasma protein binding is 30%.

Q: What about the MIC (Streptococcus pneumoniae) of the same molecule?
A: The MIC was 0.5 µg/mL (≈ 1.48 µM).

Q: And the AUC [4]?
A: The AUC was 8350 ± 3340 ng·h/mL.

Q: What about the Cmax [4] of the same molecule?
A: Its Cmax is 3410 ± 1800 ng/mL.

Q: And the Tmax [4]?
A: Its Tmax is 45 min.

Q: What about the main metabolic route [5] of the same molecule?
A: The main metabolic route was “metabolized mainly through oxidation”.

Q: What about the Kp at 2 h [6] of the same molecule?
A: Its Kp at 2 h is 2.05 ± 0.067.

Q: And the pKa [7]?
A: The pKa was 1.4.

Q: And the “in vivo activity against systemic mice infection” value (S. aureus Giorgio)?
A: The value was “better than the in vivo activity of the novel triazolyl-oxazolidinone derivatives”.

Q: And the AUC [8, 10]?
A: The AUC was 4040 ± 1280 ng·h/mL.

Q: And the half-life [8, 10]?
A: The half-life was 52.4 ± 6.3 min.

Q: And the k el ([8]; White New Zealand, plasma, n = 4, read-out: Elimination rate constant (converted))?
A: Its k el is 0.00022 s⁻¹.

Q: And the CL renal ([8]; White New Zealand, urine and plasma, from renal excretion rate and plasma drug concentration, read-out: Renal clearance (converted))?
A: The CL renal was 1.38 mL/min/kg.

Q: And the CLT ([8]; n = 4)?
A: Its CLT is 20.7 ± 7.17 mL/min/kg.

Q: And the “Fraction excreted unchanged in urine” value ([8]; ratio of renal clearance to total body clearance)?
A: The value was 5.70%.

Q: What about the AUC [9] of the same molecule?
A: The AUC was 6250 ± 3620 ng·h/mL.

Q: What about the Cmax [9] of the same molecule?
A: Its Cmax is 3910 ± 1010 ng/mL.

Q: And the Tmax [9]?
A: Its Tmax is 60 min.

Q: And the MIC (Heamophilus influenzae)?
A: The MIC was 8 µg/mL (≈ 23.7 µM).

Q: And the MIC (Moraxella catarrhalis)?
A: Its MIC is 8.0 µg/mL (≈ 23.7 µM).
